The record followed here is patent US20030176454A1, “N-coating heterocyclic compounds” (priority 2000, published 2003).

Consider `c1cc(Nc2nnc3c4c(cccc24)-c2ccccc2-3)cc(-n2ccnc2)c1` [Example 39, (Indeno[1,2,3-de]phthalazin-3-yl)-[3-(imidazol-1-yl)-phenyl]-amine], for which the melting point was 223 to 226 °C.
As for `CS(=O)(=O)O.N=C(Nc1cccc(Nc2noc3ccccc23)c1)c1ccccc1` [Example 25, N-[3-(benzo[d]isoxazol-3-ylamino)phenyl]benzamidine methanesulfonate], the figure is 113 to 115 °C.
In the case of `c1ccc2c(N[C@H]3CC[C@H](Nc4nccc5ccccc45)CC3)nccc2c1` [Example 38, N,N′-Di(isoquinolin-1-yl)-transcyclohexane-1,4-diamine] it was 278 to 280 °C; in that of `c1cc(Nc2nccc3ccccc23)cc(-n2ccnc2)c1` [Example 44, [3-(Imidazol-1-yl)-phenyl]-(isoquinolin-1-yl)-amine], 164 to 167 °C; in that of `Cc1ncc(-c2cccc(Nc3ncnc4c3CCOc3ccccc3-4)c2)n1C` [Example 86, N-[3-(1,2-dimethyl-1H-imidazol-5-yl)phenyl]-5,6-dihydro[1]benzoxepino[5,4-d]pyrimidin-4-amine], 235 to 237 °C.
Molecule `c1ccc2c(NCCCCNc3nccc4ccccc34)nccc2c1` [Example 37, N,N′-Di(isoquinolin-1-yl)-butane-1,4-diamine] had a melting point of 189 to 192 °C.
In the case of `c1ccc(Cc2nnc(Nc3cccc(-n4ccnc4)c3)c3ccccc23)cc1` [Example 36, (4-Benzyl-phthalazin-1-yl)-(3-imidazol-1-yl-phenyl)-amine] it was 214 to 217 °C; in that of `Cn1cncc1-c1cccc(Nc2ccc3ccccc3n2)c1` [Example 34, [3-(1-methyl-imidazol-5-yl)-phenyl]-(quinolin-2-yl)-amine], 60 to 65 °C.
As for `I.N=C(Nc1cccc(Nc2nnc3c4c(cccc24)-c2ccccc2-3)c1)c1ccccc1`, the figure is 183 to 186 °C; as for `c1ccc2c(c1)-c1cccc3c(NCCCCNc4nccc5ccccc45)nnc-2c13` [Example 46, N-(Indeno[1,2,3-de]phthalazin-3-yl)-N′-(isoquinolin-1-yl)-butane-1,4-diamine], 95 to 105 °C.
In the case of `c1cc(Nc2ccc(-n3cccc3)cn2)cc(-n2ccnc2)c1` [Example 87, N-[3-(imidazol-1-yl)phenyl]-N-[5-(pyrrol-1-yl)pyridin-2-yl]-amine] it was 152 to 156 °C; in that of `c1cc(Nc2nncc3ccccc23)cc(-n2ccnc2)c1` [Example 45, [3-(Imidazol-1-yl)-phenyl]-(phthalazin-1-yl)-amine], 135 to 137 °C; in that of `c1cc(CNc2nccc3ccccc23)cc(Nc2nnc3c4c(cccc24)-c2ccccc2-3)c1` [Example 40, (Indeno[1,2,3-de]phthalazin-3-yl)-[3-(isoquinolin-1-ylaminomethyl)-phenyl]-amine], 149 to 152 °C.
As to `Cn1cncc1-c1cccc(Nc2nccc3ccccc23)c1` [Example 35, [3-(1-methyl-imidazol-5-yl)-phenyl]-(isoquinolin-1-yl)-amine], the melting point lay within 208 to 209 °C.
